According to BindingDB's records for doi:10.1074/jbc.M109.038984 (Spanish National Cancer Research Center (Cnio), 2009):

target: Phosphatidylinositol 4,5-bisphosphate 3-kinase catalytic subunit alpha isoform (Homo sapiens, UniProt P42336); assay: Kinase Assay
Description: (§1) Kinase assay using PI3K.

Chain of Phosphatidylinositol 4,5-bisphosphate 3-kinase catalytic subunit alpha isoform (P42336 whole entry, canonical isoform): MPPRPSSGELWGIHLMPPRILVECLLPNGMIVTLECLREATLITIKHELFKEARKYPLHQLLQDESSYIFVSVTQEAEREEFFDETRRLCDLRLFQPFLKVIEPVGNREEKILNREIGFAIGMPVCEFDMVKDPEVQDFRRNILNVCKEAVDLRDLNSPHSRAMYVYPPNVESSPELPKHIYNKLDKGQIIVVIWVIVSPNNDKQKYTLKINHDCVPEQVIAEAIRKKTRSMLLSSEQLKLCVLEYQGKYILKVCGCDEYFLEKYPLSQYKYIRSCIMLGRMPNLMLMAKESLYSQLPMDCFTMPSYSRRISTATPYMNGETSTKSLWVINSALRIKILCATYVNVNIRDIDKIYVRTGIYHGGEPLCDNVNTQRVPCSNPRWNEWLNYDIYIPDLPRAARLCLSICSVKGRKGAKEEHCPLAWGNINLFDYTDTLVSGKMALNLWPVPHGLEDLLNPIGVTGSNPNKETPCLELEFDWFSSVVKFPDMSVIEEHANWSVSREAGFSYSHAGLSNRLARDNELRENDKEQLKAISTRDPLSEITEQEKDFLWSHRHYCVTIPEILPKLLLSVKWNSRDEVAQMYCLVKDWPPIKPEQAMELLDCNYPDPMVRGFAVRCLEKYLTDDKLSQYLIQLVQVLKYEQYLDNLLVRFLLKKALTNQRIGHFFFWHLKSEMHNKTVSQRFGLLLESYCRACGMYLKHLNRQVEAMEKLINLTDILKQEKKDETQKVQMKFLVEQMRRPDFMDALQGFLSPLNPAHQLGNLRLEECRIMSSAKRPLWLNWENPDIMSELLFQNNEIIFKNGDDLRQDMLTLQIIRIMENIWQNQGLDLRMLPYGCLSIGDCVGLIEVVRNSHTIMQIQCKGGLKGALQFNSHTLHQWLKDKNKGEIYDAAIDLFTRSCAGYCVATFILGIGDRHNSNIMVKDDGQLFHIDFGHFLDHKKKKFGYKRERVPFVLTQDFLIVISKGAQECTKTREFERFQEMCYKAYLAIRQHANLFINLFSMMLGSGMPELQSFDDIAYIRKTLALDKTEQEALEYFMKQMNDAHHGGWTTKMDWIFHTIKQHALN

**Q.** How did the IC50 turn out when `COC(=O)c1cccc(-c2nc(N3CCOCC3)c3cnn(C)c3n2)c1` [ETP-45867, 14] was run?
**A.** 0.84 µM

**Q.** Which IC50 does the source give for `CC(C)Oc1nc(N2CCOCC2)nc2c1cnn2C` [ETP-45797, 7] here?
**A.** 16.1 µM

**Q.** With `COc1cccc(Nc2nc(N3CCN(C)CC3)nc3c2cnn3C)c1` [ETP-7146] as the molecule, how does the IC50 read?
**A.** 9.2 µM

**Q.** How did the IC50 turn out when `Cn1ncc2c(Oc3ccc(Cl)cc3)nc(N3CCOCC3)nc21` [ETP-45419, 3d] was run?
**A.** 5.51 µM

**Q.** With `CC(=O)Nc1cccc(-c2nc(N3CCOCC3)c3cnn(C)c3n2)c1` [ETP-45876, 17] as the molecule, how does the IC50 read?
**A.** 7 µM

**Q.** With `CN1CCN(c2nc(Nc3cccc(Cl)c3)c3cnn(C)c3n2)CC1` [ETP-5935] as the molecule, how does the IC50 read?
**A.** 4.9 µM

**Q.** For `Cn1ncc2c(-c3cccc(O)c3)nc(N3CCOCC3)nc21` [ETP-45798, 9], which IC50 is on record?
**A.** 0.114 µM

**Q.** `Cn1ncc2c(NCc3ccccc3)nc(N3CCOCC3)nc21` [ETP-45416, 3b] was tested. Which IC50 did it give?
**A.** 36.8 µM

**Q.** Which IC50 does the source give for `Cc1cccc(Oc2nc(N3CCOCC3)nc3c2cnn3C)c1` [ETP-45874, 11] here?
**A.** 0.97 µM

**Q.** With `Cn1ncc2c(-c3cccc(NS(C)(=O)=O)c3)nc(N3CCOCC3)nc21` [ETP-45799, 10] as the molecule, how does the IC50 read?
**A.** 1.66 µM

**Q.** Which IC50 does the source give for `COc1cccc(Nc2nc(N3CCOCC3)nc3c2cnn3C)c1` here?
**A.** 0.4 µM

**Q.** With `CC1CN(c2nc(Nc3ccccc3)c3cnn(C)c3n2)CC(C)O1` (stereo unspecified) [ETP-6531] as the molecule, how does the IC50 read?
**A.** 12.6 µM

**Q.** `COc1cccc(-c2nc(N3CCOCC3)c3cnn(C)c3n2)c1` [ETP-45871, 15] was tested. Which IC50 did it give?
**A.** 5.8 µM

**Q.** Which IC50 does the source give for `CSc1cccc(-c2nc(N3CCOCC3)c3cnn(C)c3n2)c1` [ETP-45875, 16] here?
**A.** 3.53 µM

**Q.** For `Cn1ncc2c(OCc3ccccc3)nc(N3CCOCC3)nc21` [ETP-45415, 3a], which IC50 is on record?
**A.** 35.1 µM

**Q.** For `Cn1ncc2c(SCc3ccccc3)nc(N3CCOCC3)nc21` [ETP-45654, 3c], which IC50 is on record?
**A.** > 50 µM

**Q.** For `COc1cccc(Nc2nc(N3CCN(CCO)CC3)nc3c2cnn3C)c1` [ETP-8162], which IC50 is on record?
**A.** 12.6 µM

**Q.** With `Cn1ncc2c(=O)[nH]c(N3CCOCC3)nc21` [ETP-45700, 6] as the molecule, how does the IC50 read?
**A.** > 50 µM

target: Phosphatidylinositol 4,5-bisphosphate 3-kinase catalytic subunit beta isoform (Homo sapiens, UniProt P42338); assay: Kinase Assay
Sequence (P42338 whole entry, canonical isoform): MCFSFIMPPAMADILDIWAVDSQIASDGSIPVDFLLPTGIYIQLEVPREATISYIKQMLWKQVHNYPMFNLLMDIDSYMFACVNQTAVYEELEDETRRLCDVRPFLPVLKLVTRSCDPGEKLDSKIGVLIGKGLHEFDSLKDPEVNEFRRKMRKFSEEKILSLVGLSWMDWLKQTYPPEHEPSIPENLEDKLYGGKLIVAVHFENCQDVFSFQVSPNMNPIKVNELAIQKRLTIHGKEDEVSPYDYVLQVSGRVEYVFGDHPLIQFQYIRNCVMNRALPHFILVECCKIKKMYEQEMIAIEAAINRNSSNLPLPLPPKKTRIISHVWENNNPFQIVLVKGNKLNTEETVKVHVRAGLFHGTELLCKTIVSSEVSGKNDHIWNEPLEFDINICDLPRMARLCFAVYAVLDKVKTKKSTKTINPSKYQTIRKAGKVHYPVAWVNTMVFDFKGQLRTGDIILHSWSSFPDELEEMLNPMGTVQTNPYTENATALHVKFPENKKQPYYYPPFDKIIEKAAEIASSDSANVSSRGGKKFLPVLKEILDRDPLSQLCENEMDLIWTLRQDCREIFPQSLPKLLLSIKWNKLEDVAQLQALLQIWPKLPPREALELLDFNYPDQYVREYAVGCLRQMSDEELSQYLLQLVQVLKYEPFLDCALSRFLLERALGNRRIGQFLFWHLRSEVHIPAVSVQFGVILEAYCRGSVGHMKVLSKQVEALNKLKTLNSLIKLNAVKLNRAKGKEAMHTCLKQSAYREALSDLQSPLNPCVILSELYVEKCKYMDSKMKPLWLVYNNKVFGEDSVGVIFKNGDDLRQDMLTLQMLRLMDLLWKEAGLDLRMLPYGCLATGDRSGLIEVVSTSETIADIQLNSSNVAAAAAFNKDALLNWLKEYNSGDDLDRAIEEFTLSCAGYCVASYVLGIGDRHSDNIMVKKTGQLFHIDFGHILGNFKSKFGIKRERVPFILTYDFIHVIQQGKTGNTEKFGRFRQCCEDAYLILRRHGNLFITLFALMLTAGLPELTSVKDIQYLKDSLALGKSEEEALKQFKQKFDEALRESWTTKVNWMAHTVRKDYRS
Description: as §1

**Q.** `Cn1ncc2c(N3CCOCC3)nc(-c3cccc(O)c3)nc21` [ETP-45658, 13] was tested. Which IC50 did it give?
**A.** 0.129 µM

target: Phosphatidylinositol 4,5-bisphosphate 3-kinase catalytic subunit gamma isoform (Homo sapiens, UniProt P48736); assay: Kinase Assay
Sequence (P48736 whole entry, canonical isoform): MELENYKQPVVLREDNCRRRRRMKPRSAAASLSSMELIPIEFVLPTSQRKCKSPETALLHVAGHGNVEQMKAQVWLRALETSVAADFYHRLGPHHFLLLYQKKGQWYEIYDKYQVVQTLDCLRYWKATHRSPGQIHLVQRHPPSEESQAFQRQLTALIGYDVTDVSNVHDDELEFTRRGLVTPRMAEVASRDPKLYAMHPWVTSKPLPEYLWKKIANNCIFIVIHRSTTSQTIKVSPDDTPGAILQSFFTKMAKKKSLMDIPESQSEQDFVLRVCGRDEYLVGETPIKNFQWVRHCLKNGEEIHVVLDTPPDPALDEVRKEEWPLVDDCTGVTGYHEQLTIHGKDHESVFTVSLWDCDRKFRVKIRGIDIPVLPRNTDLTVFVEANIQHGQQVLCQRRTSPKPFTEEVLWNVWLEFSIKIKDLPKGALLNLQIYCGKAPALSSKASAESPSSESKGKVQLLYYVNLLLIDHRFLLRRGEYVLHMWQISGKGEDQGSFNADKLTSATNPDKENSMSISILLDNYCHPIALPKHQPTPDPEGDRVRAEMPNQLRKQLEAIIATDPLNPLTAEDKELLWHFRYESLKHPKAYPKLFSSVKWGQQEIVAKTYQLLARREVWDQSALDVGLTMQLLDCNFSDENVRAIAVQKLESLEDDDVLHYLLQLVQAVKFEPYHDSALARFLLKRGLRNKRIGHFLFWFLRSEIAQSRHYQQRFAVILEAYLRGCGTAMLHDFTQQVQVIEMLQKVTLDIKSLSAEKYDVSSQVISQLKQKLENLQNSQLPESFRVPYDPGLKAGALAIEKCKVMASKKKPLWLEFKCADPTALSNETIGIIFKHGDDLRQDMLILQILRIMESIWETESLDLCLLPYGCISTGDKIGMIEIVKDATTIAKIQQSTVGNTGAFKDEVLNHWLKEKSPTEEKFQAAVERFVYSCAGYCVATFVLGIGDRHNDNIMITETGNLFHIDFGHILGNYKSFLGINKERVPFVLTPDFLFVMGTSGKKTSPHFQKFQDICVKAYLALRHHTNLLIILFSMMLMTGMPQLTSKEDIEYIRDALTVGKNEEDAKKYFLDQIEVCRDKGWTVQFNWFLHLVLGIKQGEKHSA
Description: as §1

**Q.** For `Cn1ncc2c(N3CCOCC3)nc(-c3cccc(O)c3)nc21` [ETP-45658, 13], which IC50 is on record?
**A.** 0.717 µM

target: T1, Phosphatidylinositol 4,5-bisphosphate 3-kinase catalytic subunit delta isoform (Homo sapiens, UniProt O00329); assay: Kinase Assay
T1 sequence (O00329 whole entry): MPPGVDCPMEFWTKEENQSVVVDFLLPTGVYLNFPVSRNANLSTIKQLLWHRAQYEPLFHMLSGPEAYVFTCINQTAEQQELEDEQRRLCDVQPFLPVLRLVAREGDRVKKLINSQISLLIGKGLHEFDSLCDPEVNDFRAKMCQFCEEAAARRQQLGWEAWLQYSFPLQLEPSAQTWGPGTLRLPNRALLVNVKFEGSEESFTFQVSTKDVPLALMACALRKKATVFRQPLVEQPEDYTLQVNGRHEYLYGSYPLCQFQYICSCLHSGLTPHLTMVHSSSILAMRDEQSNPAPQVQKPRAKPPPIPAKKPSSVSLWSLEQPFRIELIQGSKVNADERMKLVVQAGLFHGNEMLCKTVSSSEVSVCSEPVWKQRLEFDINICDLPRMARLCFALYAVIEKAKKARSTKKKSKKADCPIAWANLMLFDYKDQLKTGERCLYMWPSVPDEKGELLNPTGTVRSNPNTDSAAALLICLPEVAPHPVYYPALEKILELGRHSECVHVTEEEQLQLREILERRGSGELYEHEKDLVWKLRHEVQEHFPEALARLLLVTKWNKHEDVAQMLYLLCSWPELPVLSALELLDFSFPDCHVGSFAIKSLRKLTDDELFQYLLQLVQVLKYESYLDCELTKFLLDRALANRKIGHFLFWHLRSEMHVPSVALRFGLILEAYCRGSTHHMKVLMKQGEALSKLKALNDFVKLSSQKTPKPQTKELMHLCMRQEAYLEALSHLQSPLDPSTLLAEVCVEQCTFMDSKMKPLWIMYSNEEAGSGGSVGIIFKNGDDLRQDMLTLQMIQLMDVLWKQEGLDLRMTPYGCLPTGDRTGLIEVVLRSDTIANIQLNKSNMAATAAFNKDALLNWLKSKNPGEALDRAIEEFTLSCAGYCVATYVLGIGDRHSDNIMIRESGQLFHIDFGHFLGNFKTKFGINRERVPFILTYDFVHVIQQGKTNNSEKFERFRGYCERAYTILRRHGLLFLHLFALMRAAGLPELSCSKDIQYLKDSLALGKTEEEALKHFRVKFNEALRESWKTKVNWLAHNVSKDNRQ
Description: as §1

**Q.** For `Cn1ncc2c(N3CCOCC3)nc(-c3cccc(O)c3)nc21` [ETP-45658, 13], which IC50 is on record?
**A.** 0.03 µM
